Our source for the MIC values is ChEMBL document CHEMBL1150461, “Synthesis of new 3-thiosubstituted carbacephem antibiotics and their activity against penicillin resistant Streptococcus pneumoniae” (1997).

The structures appear in SMILES notation. In brackets after ≈: the same amount, converted by molar mass.

Common to all, as to type: functional
The subject of assay [1] is Streptococcus pneumoniae. In words: In vitro minimum inhibitory concentration against penicillin susceptible Streptococcus pneumoniae strains (number of strains = 3).
Assay [2] concerns Streptococcus pneumoniae. The assay is described as follows: In vitro minimum inhibitory concentration against penicillin intermediate Streptococcus pneumoniae strains (number of strains = 3).
The subject of assay [3] is Streptococcus pneumoniae. The assay is described as follows: In vitro minimum inhibitory concentration against penicillin resistant Streptococcus pneumoniae strains (PRSP) (number of strains = 5).

Take `N[C@@H](C(=O)N[C@@H]1C(=O)N2C(C(=O)O)=C(Sc3ccccn3)CC[C@H]12)c1ccccc1`: the MIC with Streptococcus pneumoniae [1] is 0.06 µg/mL (≈ 0.141 µM); in the assay with Streptococcus pneumoniae [2], 1 µg/mL (≈ 2.36 µM); against Streptococcus pneumoniae [3], 2 µg/mL (≈ 4.71 µM).
On the same counts, the results for `CCSc1nnc(SC2=C(C(=O)O)N3C(=O)[C@@H](NC(=O)[C@H](N)c4ccccc4)[C@H]3CC2)s1` are 0.03 µg/mL (≈ 0.061 µM), 0.25 µg/mL (≈ 0.509 µM) and 0.5 µg/mL (≈ 1.02 µM).
Take `N[C@@H](C(=O)N[C@@H]1C(=O)N2C(C(=O)O)=C(Sc3ccncc3)CC[C@H]12)c1ccccc1`: the MIC against Streptococcus pneumoniae [1] amounted to 0.12 µg/mL (≈ 0.283 µM); in the assay on Streptococcus pneumoniae [2], 0.25 µg/mL (≈ 0.589 µM); against Streptococcus pneumoniae [3], 4 µg/mL (≈ 9.42 µM).
The corresponding values for `N[C@@H](C(=O)N[C@@H]1C(=O)N2C(C(=O)O)=C(Sc3cccs3)CC[C@H]12)c1ccccc1` are 0.25 µg/mL (≈ 0.582 µM), 2 µg/mL (≈ 4.66 µM) and 16 µg/mL (≈ 37.3 µM).
On to `N[C@@H](C(=O)N[C@@H]1C(=O)N2C(C(=O)O)=C(Sc3nncs3)CC[C@H]12)c1ccccc1`, for which the MIC was 0.06 µg/mL (≈ 0.139 µM) in the assay on Streptococcus pneumoniae [1], 0.25 µg/mL (≈ 0.579 µM) in the assay with Streptococcus pneumoniae [2] and 1 µg/mL (≈ 2.32 µM) in the assay with Streptococcus pneumoniae [3].
In the case of `N[C@@H](C(=O)N[C@@H]1C(=O)N2C(C(=O)O)=C(Sc3ccccc3CO)CC[C@H]12)c1ccccc1`, the values for the MIC in the assay on Streptococcus pneumoniae [1], against Streptococcus pneumoniae [2] and against Streptococcus pneumoniae [3] were 0.06 µg/mL (≈ 0.132 µM), 2 µg/mL (≈ 4.41 µM) and 4 µg/mL (≈ 8.82 µM), respectively.
As for `C[n+]1ccc(SC2=C(C(=O)[O-])N3C(=O)[C@@H](NC(=O)[C@H](N)c4ccccc4)[C@H]3CC2)cc1`, the MIC against Streptococcus pneumoniae [1] was 0.25 µg/mL (≈ 0.57 µM); in the assay with Streptococcus pneumoniae [2] it was 1 µg/mL (≈ 2.28 µM); with Streptococcus pneumoniae [3], 4 µg/mL (≈ 9.12 µM).
`N[C@@H](C(=O)N[C@@H]1C(=O)N2C(C(=O)O)=C(Sc3ccccc3Br)CC[C@H]12)c1ccccc1`: the MIC was 0.06 µg/mL (≈ 0.119 µM) in the assay with Streptococcus pneumoniae [1], 0.25 µg/mL (≈ 0.498 µM) against Streptococcus pneumoniae [2] and 2 µg/mL (≈ 3.98 µM) in the assay with Streptococcus pneumoniae [3].
With `N[C@@H](C(=O)N[C@@H]1C(=O)N2C(C(=O)O)=C(Sc3nnc(SCC4CC4)s3)CC[C@H]12)c1ccccc1`, the MIC with Streptococcus pneumoniae [1] was less than 0.03 µg/mL; with Streptococcus pneumoniae [2], 0.06 µg/mL (≈ 0.116 µM); in the assay with Streptococcus pneumoniae [3], 0.25 µg/mL (≈ 0.483 µM).
Consider `CSC1=C(C(=O)O)N2C(=O)[C@@H](NC(=O)[C@H](N)c3ccccc3)[C@H]2CC1`, for which the MIC against Streptococcus pneumoniae [1] is 1 µg/mL (≈ 2.77 µM); in the assay with Streptococcus pneumoniae [2] it was 8 µg/mL (≈ 22.1 µM); with Streptococcus pneumoniae [3] it was more than 16 µg/mL.
With `N[C@@H](C(=O)N[C@@H]1C(=O)N2C(C(=O)O)=C(Sc3cnns3)CC[C@H]12)c1ccccc1`, the MIC in the assay with Streptococcus pneumoniae [1] came to 0.06 µg/mL (≈ 0.139 µM); in the assay on Streptococcus pneumoniae [2] it was 0.25 µg/mL (≈ 0.579 µM); in the assay with Streptococcus pneumoniae [3], 1 µg/mL (≈ 2.32 µM).
For the compound `Nc1nnc(SC2=C(C(=O)O)N3C(=O)[C@@H](NC(=O)[C@H](N)c4ccccc4)[C@H]3CC2)s1`, the MIC in the assay on Streptococcus pneumoniae [1] stood at 0.06 µg/mL (≈ 0.134 µM); against Streptococcus pneumoniae [2], 0.5 µg/mL (≈ 1.12 µM); against Streptococcus pneumoniae [3], 2 µg/mL (≈ 4.48 µM).
On the same counts, the results for `Cn1ccnc1SC1=C(C(=O)O)N2C(=O)[C@@H](NC(=O)[C@H](N)c3ccccc3)[C@H]2CC1` are 1 µg/mL (≈ 2.34 µM), 8 µg/mL (≈ 18.7 µM) and more than 16 µg/mL.
`N[C@@H](C(=O)N[C@@H]1C(=O)N2C(C(=O)O)=C(Sc3ncccn3)CC[C@H]12)c1ccccc1`: the results for the MIC in the assay on Streptococcus pneumoniae [1], with Streptococcus pneumoniae [2] and in the assay with Streptococcus pneumoniae [3] were 0.12 µg/mL (≈ 0.282 µM), 0.5 µg/mL (≈ 1.18 µM) and 4 µg/mL (≈ 9.4 µM), respectively.
As for `N[C@@H](C(=O)N[C@@H]1C(=O)N2C(C(=O)O)=C(Sc3ccccc3)CC[C@H]12)c1ccccc1`, the MIC against Streptococcus pneumoniae [1] came to 0.06 µg/mL (≈ 0.142 µM); against Streptococcus pneumoniae [2], 1 µg/mL (≈ 2.36 µM); against Streptococcus pneumoniae [3], 4 µg/mL (≈ 9.45 µM).
Take `N=C(N)SCc1ccccc1SC1=C(C(=O)O)N2C(=O)[C@@H](NC(=O)[C@H](N)c3ccccc3)[C@H]2CC1`: the MIC came out at 0.02 µg/mL (≈ 0.0391 µM) with Streptococcus pneumoniae [1], 0.25 µg/mL (≈ 0.489 µM) against Streptococcus pneumoniae [2] and 0.5 µg/mL (≈ 0.977 µM) against Streptococcus pneumoniae [3].
With `Cn1cnnc1SC1=C(C(=O)O)N2C(=O)[C@@H](NC(=O)[C@H](N)c3ccccc3)[C@H]2CC1`, the figures for the minimum inhibitory concentration (MIC) in the assay on Streptococcus pneumoniae [1], against Streptococcus pneumoniae [2] and in the assay on Streptococcus pneumoniae [3] were 0.5 µg/mL (≈ 1.17 µM), 4 µg/mL (≈ 9.34 µM) and more than 16 µg/mL, respectively.
On the same counts, the results for `N[C@@H](C(=O)N[C@@H]1C(=O)N2C(C(=O)O)=C(Sc3nc4ccccc4s3)CC[C@H]12)c1ccccc1` are 0.5 µg/mL (≈ 1.04 µM), 4 µg/mL (≈ 8.32 µM) and 8 µg/mL (≈ 16.6 µM).
Take `Cc1nnc(SC2=C(C(=O)O)N3C(=O)[C@@H](NC(=O)[C@H](N)c4ccccc4)[C@H]3CC2)s1`: the figures for the MIC against Streptococcus pneumoniae [1], against Streptococcus pneumoniae [2] and in the assay with Streptococcus pneumoniae [3] were 0.03 µg/mL (≈ 0.0673 µM), 1 µg/mL (≈ 2.24 µM) and 1 µg/mL (≈ 2.24 µM), respectively.
Regarding `CSc1nnc(SC2=C(C(=O)O)N3C(=O)[C@@H](NC(=O)[C@H](N)c4ccccc4)[C@H]3CC2)s1`, the results for the MIC against Streptococcus pneumoniae [1], in the assay on Streptococcus pneumoniae [2] and with Streptococcus pneumoniae [3] were less than 0.03 µg/mL, 0.06 µg/mL (≈ 0.126 µM) and 0.25 µg/mL (≈ 0.523 µM), respectively.
Turning to `N[C@@H](C(=O)N[C@@H]1C(=O)N2C(C(=O)O)=C(Sc3nccs3)CC[C@H]12)c1ccccc1`, the MIC against Streptococcus pneumoniae [1] was found to be 0.12 µg/mL (≈ 0.279 µM); in the assay with Streptococcus pneumoniae [2] it was 2 µg/mL (≈ 4.65 µM); with Streptococcus pneumoniae [3], 4 µg/mL (≈ 9.29 µM).
Regarding `N[C@@H](C(=O)N[C@@H]1C(=O)N2C(C(=O)O)=C(Cl)CC[C@H]12)c1ccccc1` [LORACARBEF ANHYDROUS], the MIC with Streptococcus pneumoniae [1] is 2 µg/mL (≈ 5.72 µM); against Streptococcus pneumoniae [2], 8 µg/mL (≈ 22.9 µM); in the assay with Streptococcus pneumoniae [3], more than 16 µg/mL.
